Measured values from PMC8761492 (Life Science Alliance, 2022).
≈ marks a conversion by molar mass, not a printed value. Where “and” joins values, the source holds several entries; their conditions need not be identical. Identical values can stand only once. Like-named read-outs stand apart in the source and are kept apart here. Starred links: 1 amine or outer side, 2 acyl side, 3 side chain; linkers in the order of their positions; H or OH if unused. Positions of bridges follow the written chain, without caps; N, C: chain ends. Non-standard residues stand in square brackets, D forms with d. Residues, ends and D or L forms follow the SMILES beside them. *: point of attachment. X1 = CC[C@H](C)[C@@H](N[*:1])[C@@H](O)CC(=O)O[C@H](C(=O)[C@H](C)C(=O)[*:2])C(C)C; NMeY = CN[C@@H](Cc1ccc(O)cc1)C(=O)O; dNMeL = CN[C@H](CC(C)C)C(=O)O; Pyruvoyl = CC(=O)C(=O)*

Key:
[1] = human, cited from earlier work
HCoV-229E = assay: Protocol estimate of target concentrations from the HCoV-229E experiment; conditions: from IC50 0.555 µg/l assuming a Hill slope of 1
[2] = as above; conditions: bovine, cell culture medium with 10% bovine serum
COVID-19 = assay: APLICOV-PC: six-point ordinal scale (post hoc); type: in vivo, human
Method: Although not specified in the protocol (so not captured in the CRF), post-hoc analysis was performed to categorize the status of each patient at baseline, on Days 7, 15, 31, and at time of discharge using the following 6-point ordinal scale (Wang et al 2020):
Hospital admission, not requiring supplemental oxygen
Hospital admission, requiring supplemental oxygen
Hospital admission, requiring high-flow nasal cannula or noninvasive mechanical ventilation
Hospital admission, requiring extracorporeal membrane oxygenation or invasive mechanical ventilation
The number and percentage of patients with at least 1-point and at least 2-point improvements from baseline was calculated for Days 7, 15, 31 and date of discharge.

plasma proteins = assay: Plasma protein binding by equilibrium dialysis, human plasma; type: in vitro ADME; conditions: for % Bound / % Recovery / % Unbound: single replicates
Method: (§1) The binding of plitidepsin to plasma proteins was determined in vitro at three concentrations (100, 250 and 500 ng/ml) in male rat, dog and human plasma ([53]).
(§2) Rat (CD), beagle dog, and human blood was collected at Aptuit Srl from at least three male donors, and plasma prepared by centrifuging blood at 2,000g, 4°C for 10 min. Human plasma was obtained from healthy and fasted male volunteers. Na-heparin was used as the anti-coagulant for all species. All plasma was stored at approximately −20°C and thawed only once, on the day of the experiment.
(§3) Plasma protein binding was assessed using Rapid Equilibrium Dialysis plates pre-loaded with equilibrium dialysis membrane inserts (MWCO ∼8 kD).
(§4) Separation of free compound from protein-bound material was achieved by dialysis of the sample through the membrane under appropriate shaking at 37°C. The suitability of equilibrium dialysis as a method for protein binding determination of plitidepsin was assessed.
(§5) Before experimentation, the time required to reach equilibrium was determined in male rat and human plasma at one concentration (250 ng/ml) and six selected time points (2, 3, 4, 5, 6, and 7 h) at 37°C.
(§6) Plitidepsin stability was assessed in plasma (all species) and PBS at two concentrations (100 and 500 ng/ml for plasma; 0.5 and 50 ng/ml for PBS) by comparing plitidepsin concentration in spiked and preincubated plasma before and after incubation at 37°C for 5 h as determined previously.

[3] = as above; type: in vitro ADME; conditions: male, human; for recovery at 100 ng/mL / fraction unbound at 5 h, 100 ng/mL: nominal 100 ng/mL; for recovery at 500 ng/mL / fraction unbound at 5 h, 500 ng/mL: nominal 500 ng/mL
Method: as §1, §2, §3, §4, §5, §6

[4] = plasma, single replicates, read-out: % Bound (converted)
[5] = plasma, single replicates, read-out: % Unbound

CC[C@H](C)[C@H]1NC(=O)[C@@H](NC(=O)[C@@H](CC(C)C)N(C)C(=O)[C@@H]2CCCN2C(=O)C(C)=O)[C@@H](C)OC(=O)[C@H](Cc2ccc(OC)cc2)N(C)C(=O)[C@@H]2CCCN2C(=O)[C@H](CC(C)C)NC(=O)[C@@H](C)C(=O)[C@H](C(C)C)OC(=O)C[C@@H]1O [Plitidepsin] (Pyruvoyl-P[dNMeL]T[X1]LP[NMeY](Me); ester 3-C)
half-life ([1]; plasma concentrations, non-compartmental analysis, ref study APL-B-015-14): 48.1 h
half-life ([1]; whole blood concentrations, ref pharmacokinetic population analysis): 161 h
IC90 estimated (HCoV-229E): 4.995 ng/mL (≈ 4.5 nM)
fraction unbound [2]: > 0.96
2 Hospital admission, not requiring supplemental oxygen (COVID-19; Day 4, 1.5 mg (N=14)): 28.6%
3 Hospital admission, requiring supplemental oxygen (COVID-19; Day 4, 1.5 mg (N=14)): 57.1%
4 Hospital admission, requiring high-flow nasal cannula or non-invasive mechanical ventilation (COVID-19; Day 4, 1.5 mg (N=14)): 14.3%
2 Hospital admission, not requiring supplemental oxygen (COVID-19; Day 4, 2 mg (N=15)): 40%
3 Hospital admission, requiring supplemental oxygen (COVID-19; Day 4, 2 mg (N=15)): 60%
2 Hospital admission, not requiring supplemental oxygen (COVID-19; Day 4, 2.5 mg (N=15)): 33.3%
3 Hospital admission, requiring supplemental oxygen (COVID-19; Day 4, 2.5 mg (N=15)): 66.7%
2 Hospital admission, not requiring supplemental oxygen (COVID-19; Day 4, Total (N=44)): 34.1%
3 Hospital admission, requiring supplemental oxygen (COVID-19; Day 4, Total (N=44)): 61.4%
4 Hospital admission, requiring high-flow nasal cannula or non-invasive mechanical ventilation (COVID-19; Day 4, Total (N=44)): 4.5%
1 Discharged (Alive) (COVID-19; Day 7, 1.5 mg (N=14)): 21.4%
2 Hospital admission, not requiring supplemental oxygen (COVID-19; Day 7, 1.5 mg (N=14)): 21.4%
3 Hospital admission, requiring supplemental oxygen (COVID-19; Day 7, 1.5 mg (N=14)): 35.7%
4 Hospital admission, requiring high-flow nasal cannula or non-invasive mechanical ventilation (COVID-19; Day 7, 1.5 mg (N=14)): 21.4%
1 Discharged (Alive) (COVID-19; Day 7, 2 mg (N=15)): 13.3%
2 Hospital admission, not requiring supplemental oxygen (COVID-19; Day 7, 2 mg (N=15)): 20%
3 Hospital admission, requiring supplemental oxygen (COVID-19; Day 7, 2 mg (N=15)): 66.7%
1 Discharged (Alive) (COVID-19; Day 7, 2.5 mg (N=15)): 33.3%
2 Hospital admission, not requiring supplemental oxygen (COVID-19; Day 7, 2.5 mg (N=15)): 20%
3 Hospital admission, requiring supplemental oxygen (COVID-19; Day 7, 2.5 mg (N=15)): 26.7%
4 Hospital admission, requiring high-flow nasal cannula or non-invasive mechanical ventilation (COVID-19; Day 7, 2.5 mg (N=15)): 20%
1 Discharged (Alive) (COVID-19; Day 7, Total (N=44)): 22.7%
2 Hospital admission, not requiring supplemental oxygen (COVID-19; Day 7, Total (N=44)): 20.5%
3 Hospital admission, requiring supplemental oxygen (COVID-19; Day 7, Total (N=44)): 43.2%
4 Hospital admission, requiring high-flow nasal cannula or non-invasive mechanical ventilation (COVID-19; Day 7, Total (N=44)): 13.6%
1 Discharged (Alive) (COVID-19; Day 15, 1.5 mg (N=14)): 78.6%
3 Hospital admission, requiring supplemental oxygen (COVID-19; Day 15, 1.5 mg (N=14)): 7.1%
4 Hospital admission, requiring high-flow nasal cannula or non-invasive mechanical ventilation (COVID-19; Day 15, 1.5 mg (N=14)): 7.1%
5 Hospital admission, requiring extracorporeal membrane oxygenation or invasive mechanical ventilation (COVID-19; Day 15, 1.5 mg (N=14)): 7.1%
1 Discharged (Alive) (COVID-19; Day 15, 2 mg (N=15)): 93.3%
5 Hospital admission, requiring extracorporeal membrane oxygenation or invasive mechanical ventilation (COVID-19; Day 15, 2 mg (N=15)): 6.7%
1 Discharged (Alive) (COVID-19; Day 15, 2.5 mg (N=15)): 73.3%
3 Hospital admission, requiring supplemental oxygen (COVID-19; Day 15, 2.5 mg (N=15)): 6.7%
4 Hospital admission, requiring high-flow nasal cannula or non-invasive mechanical ventilation (COVID-19; Day 15, 2.5 mg (N=15)): 20%
1 Discharged (Alive) (COVID-19; Day 15, Total (N=44)): 81.8%
3 Hospital admission, requiring supplemental oxygen (COVID-19; Day 15, Total (N=44)): 4.5%
4 Hospital admission, requiring high-flow nasal cannula or non-invasive mechanical ventilation (COVID-19; Day 15, Total (N=44)): 9.1%
5 Hospital admission, requiring extracorporeal membrane oxygenation or invasive mechanical ventilation (COVID-19; Day 15, Total (N=44)): 4.5%
1 Discharged (Alive) (COVID-19; Day 31, 1.5 mg (N=14)): 85.7%
2 Hospital admission, not requiring supplemental oxygen (COVID-19; Day 31, 1.5 mg (N=14)): 7.1%
6 Death (COVID-19; Day 31, 1.5 mg (N=14)): 7.1%
1 Discharged (Alive) (COVID-19; Day 31, 2 mg (N=15)): 93.3%
4 Hospital admission, requiring high-flow nasal cannula or non-invasive mechanical ventilation (COVID-19; Day 31, 2 mg (N=15)): 6.7%
1 Discharged (Alive) (COVID-19; Day 31, 2.5 mg (N=15)): 80%
2 Hospital admission, not requiring supplemental oxygen (COVID-19; Day 31, 2.5 mg (N=15)): 6.7%
5 Hospital admission, requiring extracorporeal membrane oxygenation or invasive mechanical ventilation (COVID-19; Day 31, 2.5 mg (N=15)): 6.7%
6 Death (COVID-19; Day 31, 2.5 mg (N=15)): 6.7%
1 Discharged (Alive) (COVID-19; Day 31, Total (N=44)): 86.4%
2 Hospital admission, not requiring supplemental oxygen (COVID-19; Day 31, Total (N=44)): 4.5%
4 Hospital admission, requiring high-flow nasal cannula or non-invasive mechanical ventilation (COVID-19; Day 31, Total (N=44)): 2.3%
5 Hospital admission, requiring extracorporeal membrane oxygenation or invasive mechanical ventilation (COVID-19; Day 31, Total (N=44)): 2.3%
6 Death (COVID-19; Day 31, Total (N=44)): 4.5%
fraction unbound at 100 ng/mL (plasma proteins; male, human, plasma, nominal 100 ng/mL, Mean ± SD, read-out: % Bound (converted)): 0.017
% Bound (plasma proteins; nominal 100 ng/mL): 98.3% and 98.2%
% Recovery (plasma proteins; nominal 100 ng/mL): 84.7% and 77.7%
% Unbound (plasma proteins; nominal 100 ng/mL): 1.7% and 1.8%
% Bound (plasma proteins; nominal 250 ng/mL): 98.5% and 98%
% Recovery (plasma proteins; nominal 250 ng/mL): 56.7% and 87.3% and 87%
% Unbound (plasma proteins; nominal 250 ng/mL): 1.5% and 2%
% Bound (plasma proteins; nominal 500 ng/mL): 98%
% Recovery (plasma proteins; nominal 500 ng/mL): 78.8%
% Unbound (plasma proteins; nominal 500 ng/mL): 2%
fraction unbound ([3]; independent of drug concentration): 0.02
recovery at 100 ng/mL ([3]; plasma, Mean ± SD): 84.3 ± 6.4%
fraction unbound at 5 h, 100 ng/mL ([3]; plasma, Mean ± SD, read-out: % Unbound): 0.017 ± 0.002
recovery at 100 ng/mL ([3]; plasma, single replicates): 90.4%
fraction unbound at 5 h, 100 ng/mL [3, 4]: 0.014
fraction unbound at 5 h, 100 ng/mL [3, 5]: 0.014
recovery at 250 ng/mL ([3]; plasma, nominal 250 ng/mL, Mean ± SD): 77 ± 17.6%
fraction unbound at 5 h, 250 ng/mL ([3]; plasma, nominal 250 ng/mL, Mean ± SD, read-out: % Bound (converted)): 0.022
fraction unbound at 5 h, 250 ng/mL ([3]; plasma, nominal 250 ng/mL, Mean ± SD, read-out: % Unbound): 0.022 ± 0.008
fraction unbound at 5 h, 250 ng/mL ([3]; plasma, nominal 250 ng/mL, single replicates, read-out: % Bound (converted)): 0.03
fraction unbound at 5 h, 250 ng/mL ([3]; plasma, nominal 250 ng/mL, single replicates, read-out: % Unbound): 0.03
recovery at 500 ng/mL ([3]; plasma, mean, n=2): 80.4%
fraction unbound at 5 h, 500 ng/mL ([3]; plasma, mean, n=2, read-out: % Bound (converted)): 0.019
fraction unbound at 5 h, 500 ng/mL ([3]; plasma, mean, n=2, read-out: % Unbound): 0.019
recovery at 500 ng/mL ([3]; plasma, single replicates): 82%
fraction unbound at 5 h, 500 ng/mL [3, 4]: 0.019
fraction unbound at 5 h, 500 ng/mL [3, 5]: 0.019
